Read-outs that look alike come from different tables or passages of the source. Where a SMILES comes first, the peptide text is derived from it. Bridges are numbered along the chain shown (N, C = ends). [ ]: non-standard residue; d: D form. Bpa = N[C@@H](Cc1ccc(C(=O)c2ccccc2)cc1)C(=O)O; Phe(4-CN) = N#Cc1ccc(C[C@H](N)C(=O)O)cc1; Tic = O=C(O)[C@@H]1Cc2ccccc2CN1; AllylGly = C=CC[C@H](N)C(=O)O; Cba = N[C@@H](CC1CCC1)C(=O)O; Tle = CC(C)(C)[C@H](N)C(=O)O; Nle = CCCC[C@H](N)C(=O)O; Dab = NCC[C@H](N)C(=O)O
Columns and labels:
hNTS1 receptor = molecular target: T1, hNTS1 receptor (Homo sapiens, UniProt P30989); assay: Competitive radioligand binding assay on the hNTS1 receptor; details: membranes of CHO-K1 cells expressing hNTS1
T1 construct: membranes prepared from them
Outline: (§1)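 IC50 values came from one-site competition curves against ¹²⁵I-[Tyr³]-NT after 60 min at 25 °C (pH 7.5 Tris, 0.2% BSA), with analogues at 10⁻¹¹–10⁻⁴ M and nonspecific binding set by 10⁻⁵ M NT(8-13). hNTS1 used 15 µg CHO-K1 membranes with […] tracer; hNTS2 used 50 µg 1321N1 membranes with […] tracer.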

hNTS2 receptor = molecular target: T2, hNTS2 receptor (Homo sapiens, UniProt O95665); assay: Competitive radioligand binding assay on the hNTS2 receptor; details: for IC50: membranes of 1321N1 cells expressing hNTS2; for Selectivity: ratio IC50 for NTS1 : IC50 for NTS2
T2 construct: membranes prepared from them
Outline: as §1

[1] = displacement of 125I-[Tyr3]-NT, read-out: IC50 NTS1
[2] = displacement of 125I-[Tyr3]-NT, read-out: IC50 NTS2 (converted)

T1 sequence (P30989 whole entry): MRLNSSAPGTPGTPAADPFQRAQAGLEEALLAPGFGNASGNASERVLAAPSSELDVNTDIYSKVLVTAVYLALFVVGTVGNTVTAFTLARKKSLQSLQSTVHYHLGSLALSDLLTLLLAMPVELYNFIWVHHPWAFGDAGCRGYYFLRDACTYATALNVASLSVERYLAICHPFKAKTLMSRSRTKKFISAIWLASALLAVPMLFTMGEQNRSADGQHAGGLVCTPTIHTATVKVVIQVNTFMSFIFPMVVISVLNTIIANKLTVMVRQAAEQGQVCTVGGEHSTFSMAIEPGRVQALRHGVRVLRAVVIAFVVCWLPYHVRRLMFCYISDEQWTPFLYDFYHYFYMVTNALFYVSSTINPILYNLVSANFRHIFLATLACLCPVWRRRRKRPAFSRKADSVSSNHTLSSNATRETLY
T2 sequence (O95665 whole entry): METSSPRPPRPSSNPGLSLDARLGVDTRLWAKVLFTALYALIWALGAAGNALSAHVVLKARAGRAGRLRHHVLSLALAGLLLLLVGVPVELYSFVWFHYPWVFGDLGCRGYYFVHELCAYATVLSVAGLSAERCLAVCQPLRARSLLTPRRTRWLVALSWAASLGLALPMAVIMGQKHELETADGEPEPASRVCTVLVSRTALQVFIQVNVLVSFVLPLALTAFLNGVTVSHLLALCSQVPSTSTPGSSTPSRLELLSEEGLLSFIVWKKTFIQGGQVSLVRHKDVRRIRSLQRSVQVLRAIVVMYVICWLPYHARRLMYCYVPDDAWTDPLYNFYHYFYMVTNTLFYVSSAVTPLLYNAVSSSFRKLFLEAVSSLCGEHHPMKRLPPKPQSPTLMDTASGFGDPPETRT

| IC50 (hNTS1 receptor; [1]) | IC50 (hNTS2 receptor; [2]) | Selectivity (hNTS2 receptor) | Structure (SMILES) | IC50 (hNTS1 receptor; IC50 NTS1, displacement of 125I-[Tyr3]-NT) | IC50 (hNTS2 receptor; IC50 NTS2, displacement of 125I-[Tyr3]-NT) |
| --- | --- | --- | --- | --- | --- |
| > 100000 nM | 96.2 nM | 1040 | CC(C)C[C@H](NC(=O)[C@@H]1Cc2ccccc2CN1C(=O)[C@@H]1CC=CC[C@H](N)C(=O)N[C@@H](CCCCN)C(=O)N[C@@H](CCCCN)C(=O)N1)C(=O)O [compound 167, c[G(All)KKG(All)]G(Tic)*L*] (H-[AllylGly]KK[AllylGly][Tic]L-OH; staple 1-4) |  |  |
| > 100000 nM | 276 nM | 362 | CC(C)C[C@H](NC(=O)[C@H](CC1CCC1)NC(=O)[C@@H]1CC=CC[C@H](N)C(=O)N[C@@H](CCCCN)C(=O)N[C@@H](CCCCN)C(=O)N1)C(=O)O [compound 143, c[G(All)KKG(All)]A (cyclobutyl)L] (H-[AllylGly]KK[AllylGly][Cba]L-OH; staple 1-4) |  |  |
| > 100000 nM | 57.8 nM | >1729 | CC(C)C[C@H](NC(=O)[C@H](Cc1ccc(C#N)cc1)NC(=O)[C@@H]1CC=CC[C@H](N)C(=O)N[C@@H](CCCCN)C(=O)N[C@@H](CCCCN)C(=O)N1)C(=O)O [compound 118, c[G(All)KKG(All)]F(4-cyano)L] (H-[AllylGly]KK[AllylGly][Phe(4-CN)]L-OH; staple 1-4) |  |  |
| > 100000 nM | 381 nM | >262 | CCCC[C@H](NC(=O)[C@H](Cc1ccc(O)cc1)NC(=O)[C@@H]1CC=CC[C@H](N)C(=O)N[C@@H](CCCCN)C(=O)N[C@@H](CCCCN)C(=O)N1)C(=O)O [compound 28, c[G(All)KKG(All)]YNle] (H-[AllylGly]KK[AllylGly]Y[Nle]-OH; staple 1-4) |  |  |
| > 100000 nM | 582 nM | 172 | CC(C)C[C@H](NC(=O)[C@H](C)NC(=O)[C@@H]1CC=CC[C@H](N)C(=O)N[C@@H](CCCCN)C(=O)N[C@@H](CCCCN)C(=O)N1)C(=O)O [compound 138, c[G(All)KKG(All)]AL] (H-[AllylGly]KK[AllylGly]AL-OH; staple 1-4) |  |  |
| > 100000 nM | 77800 nM | >1.3 | CC(C)(C)[C@H](NC(=O)[C@H](Cc1ccc(O)cc1)NC(=O)[C@@H]1CC=CC[C@H](N)C(=O)N[C@@H](CCCCN)C(=O)N[C@@H](CCCCN)C(=O)N1)C(=O)O [compound 27, c[G(All)KKG(All)]YTle] (H-[AllylGly]KK[AllylGly]Y[Tle]-OH; staple 1-4) |  |  |
| > 100000 nM | 85.1 nM | >1175 | CC(C)C[C@H](NC(=O)[C@H](Cc1ccccc1)NC(=O)[C@@H]1CC=CC[C@H](N)C(=O)N[C@@H](CCCCN)C(=O)N[C@@H](CCCCN)C(=O)N1)C(=O)O [compound 76, c[G(All)KKG(All)FL] (H-[AllylGly]KK[AllylGly]FL-OH; staple 1-4) |  |  |
| > 100000 nM | 1450 nM | >67.0 | CC(C)C[C@H](NC(=O)[C@H](Cc1ccc(O)cc1)NC(=O)[C@@H]1CCNC(=O)C[C@H](N)C(=O)N[C@@H](CCCCN)C(=O)N[C@@H](CCCCN)C(=O)N1)C(=O)O [compound 105, c[DKKDab]YL] (H-DKK[Dab]YL-OH; lactam 1-4) |  |  |
| > 100000 nM | 570 nM | >175 | CC(C)C[C@H](NC(=O)[C@H](Cc1ccc(O)cc1)NC(=O)[C@@H]1CC=CC[C@H](N)C(=O)N[C@@H](CCCCN)C(=O)N[C@@H](Cc2c[nH]cn2)C(=O)N1)C(=O)O [compound 55, c[G(All)KHG(All)]YL] (H-[AllylGly]KH[AllylGly]YL-OH; staple 1-4) |  |  |

| Structure (SMILES) | IC50 (hNTS1 receptor; [1]) | IC50 (hNTS2 receptor; [2]) | Selectivity (hNTS2 receptor) | IC50 (hNTS1 receptor; IC50 NTS1, displacement of 125I-[Tyr3]-NT) | IC50 (hNTS2 receptor; IC50 NTS2, displacement of 125I-[Tyr3]-NT) |
| --- | --- | --- | --- | --- | --- |
| CC(C)C[C@H](NC(=O)[C@H](Cc1ccc(C(=O)c2ccccc2)cc1)NC(=O)[C@@H]1CC=CC[C@H](N)C(=O)N[C@@H](CCCCN)C(=O)N[C@@H](CCCCN)C(=O)N1)C(=O)O [compound 160, c[G(All)KKG(All)]F (benzoyl)L] (H-[AllylGly]KK[AllylGly][Bpa]L-OH; staple 1-4) |  |  | 2 | > 100000 nM | 115 nM |

Reference: patent US12358948B2, “Neurotensinergic agonists and methods of using same preventing or treating pain” (priority 2019, dated 2025)
